{
  "source": "patent US9107852B2",
  "about": "“Uses of agonists of delta opioid receptor in cosmetic and dermocosmetic field” (Induchem Holding AG, priority 2012, dated 2015)",
  "key": {"[1]": {"tested_on": "opioid receptor delta (DOR)", "assay": "Scoring of DOR1 expression in RHE stimulated with cytokines", "assay_type": "cell-based, human", "conditions": "JAK inhibitor I tested at 10 μM", "method": "In the present study, the effects of a peptide (YPLDLF, SEQ ID No 1) on the expression of opioid receptor delta (DOR) were researched on a reconstructed human epidermis (RHE) model under basal or stimulated conditions. More precisely, the RHE were stimulated by a mix of cytokines (IL-17+OSM+TNF-α) able to induce a strong inflammatory profile and a psoriatic phenotype in keratinocytes.\nReconstructed human epidermis (RHE) of 11 days old was prepared according to a derived method described by Poumay et al. (2004). These RHE were cultivated at 37° C. and 5% of CO2 in a specific maintenance medium.\nThe RHE treated under basal conditions were placed in assay medium containing or not (non-stimulated control) the peptide solutions and incubated for 54 hours. For inflammatory conditions, the RHE were placed in assay medium containing or not (stimulated control) the peptide solutions or the reference […] at 10 μM) and pre-incubated for 6 hours. The RHE were then stimulated with a mix of cytokines (IL-17+OSM+TNF-α at 3 ng/ml) and incubated for 48 hours. All experimental conditions were performed in n=3.\nAt the end of incubation, the supernatants were collected and the RHE were washed in phosphate buffered saline solution (PBS) for immunohistofluorescence analysis. […]"}, "human skin explants": {"tested_on": "human skin explants", "assay": "Pro-pigmentation on human skin explants", "assay_type": "cell-based", "conditions": "within 6 days, 0.3 and 3 PPM", "method": "This study aims to explore the pro pigmenting activity of an ingredient (peptide YPLDLF, SEQ ID No 1) on human skin explants maintained in survival.\nThe activity of the product was evaluated by: • histological expertise of general morphology of the skin after Masson trichrome staining, • a visualization of melanin by a silver impregnation. • Immunostaining of Melan-A\nSkin explants with a diameter of 10 mm were prepared from plastic surgery skin sample from a person. The explants were placed in survival in a specific growth medium at 37° C. in a humid atmosphere enriched with 5% CO2.\nThe peptide solutions (at 0.3 PPM or 3 PPM) were applied topically for 2 hours every day using a filter paper discs presoaked in 30 μl of each solution.\nAt D0, a T0 lot of the explants were removed and cut in half. One half was fixed in buffered formalin and the other half was frozen at −80° C. […]\nThe melanin was visualized by silver impregnation according to the technique of Masson Fontana variant. Labeled melanin has been evaluated by microscopic examination.\nThe expression of melanin in the basal layers, was quantified by image analysis using the software Cell-D.\nThe cell nuclei were colored with a propidium iodide. Labeled Melan-A has been evaluated by microscopic examination and counting of melanocytes Melan-A positive and the results expressed per centimeter of epidermis."}},
  "note": "Ends that are not written are not given here.",
  "data": [
    {"substance": "YPLDLF [YPLDLF]", "values": [
      {"measurement": "inhibitory effect of the cytokine mix on OPRD1 expression", "setting": "[1]", "value": "reversed"},
      {"measurement": "production of pigment (melanin) in human skin", "setting": "human skin explants", "value": "activate in a dose dependent manner"}
    ]}
  ]
}
